According to patent US20260177556A1, “PROXIMITY-BASED LABELING OF SIALYLATED GLYCOPROTEINS” (THE TRUSTEES OF PRINCETON UNIVERSITY, priority 2022, published 2026):

Tests used:
Assay type in all cases: cell-based
[1] = test system: sialylated cell-surface glycoproteins of HeLa cells; assay: Glycomap labeling efficiency by streptavidin western blot densitometry; conditions: for Experiment/control: ratio of densitometry readouts
Protocol: HeLa cells (approx. 0.4×10^6 cells) were incubated in 6 well dishes in complete DMEM (2 mL) containing Ac4ManNAz (100 μM) at 37° C. for 72 hours. The cells were washed with DPBS (3×1 mL) and then incubated in complete DMEM (2 mL) containing DBCO-iridium (5 μM) or DBCO-biotin (5 μM) at 37° C. for 24 hours. The cells were washed with DPBS (3×1 mL) and irradiated in DMEM (no phenol-red, 200 μL) containing biotin-diazirine (250 μM) at room temperature for 20 minutes in the biophotoreactor (blue LEDs). The cells were washed with DPBS (3×1 mL), scraped in DPBS (1 mL), and transferred to 1.5 mL Eppendorf tubes. The cells were pelleted at 400×G for 5 minutes and resuspended in Ripa lysis buffer (500 μL). The cells were lysed by sonication (bioruptor) at 4° C. for 10 minutes (20 cycles, 15 sec on 15 sec off at 100% power). The protein concentration was normalized by BCA assay and the lysate was analyzed by Western blot (20 μg of protein per lane, 12% gel, 150 V). The gel was transferred via iBlot 2 to an NC membrane Following transfer, the membrane was immersed in Odyssey Blocking Buffer (Li-Cor, 927-50000) and incubated at room temperature for 1 hour. The blocking buffer was replaced with fresh blocking buffer (10 mL) containing anti-Actin antibody (10 μL) and the membrane was rocked for 1 hour. The buffer was decanted, and the membranes were washed with 1×TBST (4×5 min) and water (3×5 sec). […]
Based on the Western blot results shown in FIG. 2B the efficiency of labeling via Glycomap can be calculated using densitometry. […]
The whole calculation is listed below: • Densitometry readout DBCO-Iridium full experiment: 108′442 • Densitometry readout DBCO-Iridium control: 6′164 • Experiment/control: 17.6 • Densitometry readout DBCO-Biotin full experiment: 158′335 • Densitometry readout DBCO-Biotin control: 5′937 • Experiment/control: 26.7 • Comparison: 17.6/26.7=0.7 tags per catalyst.

[2] = test system: HEK293T, HeLa or primary cervical epithelial cells; assay: Confocal microscopy of biotinylation after glycomap experiment; conditions: after Ac4ManNAz, 5 μM reagent, irradiation in presence of biotin-diazirine
Protocol: Cells (HEK293T, HeLa or primary cervical epithelial cells) (approx. 2×10^4 cells) were incubated in poly-lysine coated 8 well chamber slides in complete DMEM (200 μL) containing Ac4ManNAz (100 μM) at 37° C. for 48 hours. The cells were washed with DPBS (3×200 μL) and then incubated in complete DMEM (200 μL) containing DBCO-iridium (5 μM) or DBCO-biotin (5 μM) at 37° C. for 24 hours. The cells were washed with DPBS (3×200 μL) and irradiated in DMEM (no phenol-red, 200 μL) containing biotin-diazirine (250 μM) at room temperature for 20 minutes in the biophotoreactor (blue LEDs). The cells were washed with DPBS (3×200 μL) and fixed with prewarmed 4% paraformaldehyde (200 μL) at room temperature for 30 min. The cells were washed with DPBS (2×200 μL) and blocked with 3% BSA in DPBS (200 μL) at room temperature for 1 hour. The blocking buffer was replaced with fresh 3% BSA in DPBS (200 μL) containing Hoechst (1:1000), and Streptavidin-AlexaFluor 555 conjugate (1:1000). The cells were stained in the dark at room temperature for 1 hour and then stored in the dark at 4° C. The cells were imaged on a NIKON A1R-SI microscope (Nikon Instruments, Inc., Melville, NY) at 20× magnification. The images were processed with Fiji-ImageJ. Images shown are representative of the multiple cross-sectional images taken during each session.

HeLa cells [3] = assay: Mass spectrometry-based metabolomic quantification of sialidase-treated cells; conditions: sialidase-treated vs untreated HeLa cells, 72 hours
Protocol: In transparent 10 cm dishes (×6), HeLa cells were grown for 72 hours in 5 mL complete DMEM supplemented with 10% FBS in presence or absence of neuraminidase (20 U/mL). After 72 hours, the cells were washed with DPBS (3×5 mL) and incubated with TrypLE (1 mL) for 15 minutes at 37° C. The cells were transferred to 15 mL conical tubes using 4 mL DPBS to wash the plates. The cells were pelleted at 500×G for 4 minutes and resuspended in 1 mL DPBS. The cells were counted, and 500′000 cells/experiment were transferred to 1.5 mL Eppendorf tubes. The cells were pelleted (500×g for 4 min), the supernatant removed, and the cells were lysed with ice cold 80% MeOH (60 μL) for 30 minutes at 0° C. The cell lysate was clarified by centrifugation at 20′000×G for 25 minutes and the lysates were transferred to new 0.5 mL Eppendorf tubes and stored at −80° C. until mass spectrometry analysis.
HPLC-grade water, methanol, and acetonitrile were obtained from Thermo Fisher Scientific. Supernatant sample was thawed at room temperature and kept at 4° C. in an autosampler. Samples were analyzed using a Q Exactive Plus mass spectrometer coupled to Vanquish UHPLC system (Thermo Fisher Scientific). LC separation was achieved using a XBridge BEH Amide column (2.1 mm×150 mm, 2.5-μm particle size, 130-A pore size; Waters, Milford, MA, USA) using a gradient of solvent A (20 mM ammonium acetate+20 mM ammonium hydroxide in 95:5 water/acetonitrile [pH 9.45]) and solvent B (acetonitrile). Flow rate was […]. The gradient was 0 min, 90% B; 2 min, 90% B; 3 min, 75%; 7 min, 75% B; 8 min, 70%, 9 min, 70% B; 10 min, 50% B; 12 min, 50% B; 13 min, 25% B; 14 min, 25% B; 16 min, 0% B, 20.5 min, 0% B; 21 min, 90% B; 25 min, 90% B. The column temperature was 25° C., and the injection volume was 5 μL. The mass spectrometer is operated in full scan mode with separate runs in positive mode and negative mode covering m/z 70-1000, with resolution 140,000 at m/z 200, AGC target 5E6, maximum injection time 200 ms.
Data analyses were performed using El-Maven and the metabolites identified with an in-house library using authentic standards.^3 Metabolite signal intensity were then further processed in Excel (median correction) and Graphpad Prism (transformation, t-test, and volcano plot generation).

HeLa cells [4] = assay: Colorimetric zinc assay
Protocol: The zinc assay was purchased from Abcam (ab102507), and the experiment was performed according to the procedure below, adapted from the supplier's instructions.
In transparent 10 cm dishes, HeLa cells were grown in complete medium (DMEM, supplemented with 10% FBS) in presence (×3) or absence (×3) of VC-sialidase (20 mU/mL medium) for 96 hours. The medium was exchanged every 24 hours and fresh sialidase was added at those timepoints. After 96 hours, the medium was removed and DPBS (5 mL) was added. The cells were scraped, transferred to 15 mL conical tubes, and pelleted at 400×g for 5 minutes. The supernatant was removed, and the cells were lysed in 50 μL EDTA-free lysis buffer lysed by sonication (bioruptor) at 4° C. for 10 minutes.
The lysate was clarified at 18′000×g for 15 minutes and analyzed by BCA assay. 30 µL of the cell lysate was transferred to a 1.5 mL Eppendorf tube containing 30 μL of 7% TCA to precipitate proteins. The mixture was clarified at 18′000×g for 5 minutes and […] of the resulting solution were used for the zinc detection assay.

Row | Compound | tags per catalyst (labeling efficiency) ([1]; HeLa cells, Ac4ManNAz 100 μM, streptavidin blot densitometry, relative to DBCO-biotin) [tags per catalyst] | Experiment/control [1] | biotinylation by confocal microscopy [2] | level of cytidine diphosphate choline (CDP-choline) (HeLa cells [3]) | level of cytidine diphosphate ethanolamine (CDP-Etn) (HeLa cells [3]) | level of phosphate ethanolamine (P-Etn) (HeLa cells [3]) | most metabolite levels (HeLa cells [3]) | Zinc concentration (nmol zinc/mg of protein-free lysate) (HeLa cells [4]; HeLa cells, VC-sialidase 20 mU/mL medium, 96 hours, single replicates) [nmol/mg] | zinc level vs untreated cells (HeLa cells [4]; sialidase-treated vs untreated HeLa cells)
1 | [Ir(dCO2HdFCF3ppy)2(bpy-dbco) [DBCO-iridium] | 0.7 | 17.6 | strong biotinylation |  |  |  |  |  | 
2 | VC-Sia: sialidase isolated from Vibrio cholerae, cleaves α2,3-, α2,6-, or α2,8-linked sialic acids |  |  |  | significantly increased | significantly increased | significantly increased | minimally affected | 1.4 | significantly higher
3 | O=C(CCCC[C@@H]1SC[C@@H]2NC(=O)N[C@@H]21)NCC(C(=O)NCCC(=O)N1Cc2ccccc2C#Cc2ccccc21)S(=O)(=O)O (some centres unmarked) [DBCO-biotin, DBCO-Sulfo-Link-biotin, reference compound] |  | 26.7 | strong biotinylation |  |  |  |  |  | 
